# Test results reported in US9708318B2, “Bicyclic heterocycles as FGFR4 inhibitors” (Incyte Corporation, priority 2015, dated 2017).
# Read-outs that look alike come from different tables or passages of the source.
# What was measured:
# FGFR4 = FGFR4 (Homo sapiens (Human), UniProt P22455); assay: FGFR Enzymatic Assay (FRET peptide phosphorylation), FGFR4; type: biochemical; conditions: pre-incubated for 4 hours
# Description: (§1) The inhibitor potency of the exemplified compounds was measured in an enzyme assay that measures peptide phosphorylation using FRET measurements to detect product formation. Inhibitors were serially diluted in DMSO and a volume of 0.5 μL was transferred to the wells of a 384-well plate.
# (§2) The enzymes were purchased from Millipore or Invitrogen.
# (§3) GraphPad prism3 was used to analyze the data.
# FGFR1 = FGFR1 (Homo sapiens (Human), UniProt P11362); assay: FGFR Enzymatic Assay (FRET peptide phosphorylation), FGFR1
# FGFR2 = FGFR2 (Homo sapiens (Human), UniProt P21802); assay: FGFR Enzymatic Assay (FRET peptide phosphorylation), FGFR2; type: biochemical; conditions: pre-incubated for 4 hours
# Description: as §1, §2, §3
# FGFR3 enzyme = FGFR3 enzyme (Homo sapiens (Human), UniProt P22607); assay: FGFR Enzymatic Assay (FRET peptide phosphorylation), FGFR3; type: biochemical; conditions: for FGFR1/FGFR3 IC50 ratio / FGFR4/FGFR3 IC50 ratio: FGFR3 selectivity
# Description: as §1, §3
# [1] = FGFR1 IC50 (nM), pre-incubated for 4 hours
# [2] = pre-incubated for 4 hours, read-out: FGFR3 IC50
# [3] = read-out: FGFR1 IC50, pre-incubated for 4 hours
# Chain of FGFR3 enzyme (P22607 23-806): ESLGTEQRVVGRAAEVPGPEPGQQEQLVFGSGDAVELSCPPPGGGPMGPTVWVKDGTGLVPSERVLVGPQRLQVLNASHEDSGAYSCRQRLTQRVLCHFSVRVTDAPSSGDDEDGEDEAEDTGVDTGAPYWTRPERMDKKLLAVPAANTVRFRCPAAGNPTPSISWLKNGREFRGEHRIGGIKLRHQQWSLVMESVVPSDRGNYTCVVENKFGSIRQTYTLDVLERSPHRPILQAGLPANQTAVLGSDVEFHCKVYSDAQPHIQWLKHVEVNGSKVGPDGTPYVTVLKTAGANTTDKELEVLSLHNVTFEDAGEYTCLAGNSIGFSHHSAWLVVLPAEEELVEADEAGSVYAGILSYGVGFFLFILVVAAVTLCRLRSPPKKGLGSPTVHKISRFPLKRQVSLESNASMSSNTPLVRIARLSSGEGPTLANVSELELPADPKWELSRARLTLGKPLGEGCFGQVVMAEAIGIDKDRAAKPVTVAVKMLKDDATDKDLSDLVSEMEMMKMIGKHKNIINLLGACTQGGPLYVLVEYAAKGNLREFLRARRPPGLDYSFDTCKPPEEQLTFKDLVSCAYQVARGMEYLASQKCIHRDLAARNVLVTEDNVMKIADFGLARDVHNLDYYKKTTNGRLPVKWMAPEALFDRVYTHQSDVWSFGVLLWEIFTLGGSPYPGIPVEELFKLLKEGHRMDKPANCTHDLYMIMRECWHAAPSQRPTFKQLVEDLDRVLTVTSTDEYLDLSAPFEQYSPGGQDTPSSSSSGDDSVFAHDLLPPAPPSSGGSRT
# Chain of FGFR1 (P11362 22-822): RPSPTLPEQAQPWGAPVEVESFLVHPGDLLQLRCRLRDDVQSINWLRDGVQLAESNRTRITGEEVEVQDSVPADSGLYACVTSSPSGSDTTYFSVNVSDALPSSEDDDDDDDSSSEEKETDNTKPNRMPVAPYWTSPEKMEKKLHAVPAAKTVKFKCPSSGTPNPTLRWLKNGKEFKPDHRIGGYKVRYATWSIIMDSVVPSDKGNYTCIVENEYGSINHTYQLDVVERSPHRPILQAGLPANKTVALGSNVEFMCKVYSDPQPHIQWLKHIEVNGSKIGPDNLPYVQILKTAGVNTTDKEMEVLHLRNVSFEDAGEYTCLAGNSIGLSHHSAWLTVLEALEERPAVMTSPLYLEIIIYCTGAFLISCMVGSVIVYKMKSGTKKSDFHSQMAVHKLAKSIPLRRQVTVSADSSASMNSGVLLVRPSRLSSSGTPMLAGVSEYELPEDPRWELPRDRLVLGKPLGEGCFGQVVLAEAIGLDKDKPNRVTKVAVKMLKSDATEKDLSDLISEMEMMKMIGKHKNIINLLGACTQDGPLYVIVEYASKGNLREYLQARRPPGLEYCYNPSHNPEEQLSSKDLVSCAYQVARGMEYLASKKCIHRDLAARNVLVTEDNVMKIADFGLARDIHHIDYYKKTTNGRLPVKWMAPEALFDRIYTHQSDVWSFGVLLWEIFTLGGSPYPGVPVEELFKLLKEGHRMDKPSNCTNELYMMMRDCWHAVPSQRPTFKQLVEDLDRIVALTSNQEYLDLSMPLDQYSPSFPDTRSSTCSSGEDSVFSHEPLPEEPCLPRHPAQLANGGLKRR
# Chain of FGFR2 (P21802 22-821): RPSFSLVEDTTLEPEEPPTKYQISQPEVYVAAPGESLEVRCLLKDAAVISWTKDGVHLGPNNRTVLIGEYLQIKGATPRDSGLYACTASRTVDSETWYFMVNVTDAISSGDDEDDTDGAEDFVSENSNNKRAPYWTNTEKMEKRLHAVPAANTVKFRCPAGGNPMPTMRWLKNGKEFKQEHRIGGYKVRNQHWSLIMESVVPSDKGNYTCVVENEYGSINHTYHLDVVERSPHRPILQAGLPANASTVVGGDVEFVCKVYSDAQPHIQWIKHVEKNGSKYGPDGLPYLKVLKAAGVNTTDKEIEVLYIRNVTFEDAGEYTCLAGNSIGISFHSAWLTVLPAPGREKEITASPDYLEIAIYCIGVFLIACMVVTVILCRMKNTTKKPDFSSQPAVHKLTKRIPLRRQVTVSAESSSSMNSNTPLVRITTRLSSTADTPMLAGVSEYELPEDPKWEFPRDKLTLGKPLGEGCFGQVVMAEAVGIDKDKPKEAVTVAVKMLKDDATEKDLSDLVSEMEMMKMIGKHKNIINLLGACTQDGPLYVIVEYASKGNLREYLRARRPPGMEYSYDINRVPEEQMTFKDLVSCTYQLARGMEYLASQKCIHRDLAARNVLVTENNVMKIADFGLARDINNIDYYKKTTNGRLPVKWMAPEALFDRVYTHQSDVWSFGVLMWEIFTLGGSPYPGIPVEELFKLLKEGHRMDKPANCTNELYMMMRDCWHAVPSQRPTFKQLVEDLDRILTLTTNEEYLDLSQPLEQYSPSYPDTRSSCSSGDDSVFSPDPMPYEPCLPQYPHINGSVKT
# Chain of FGFR4 (P22455 22-802): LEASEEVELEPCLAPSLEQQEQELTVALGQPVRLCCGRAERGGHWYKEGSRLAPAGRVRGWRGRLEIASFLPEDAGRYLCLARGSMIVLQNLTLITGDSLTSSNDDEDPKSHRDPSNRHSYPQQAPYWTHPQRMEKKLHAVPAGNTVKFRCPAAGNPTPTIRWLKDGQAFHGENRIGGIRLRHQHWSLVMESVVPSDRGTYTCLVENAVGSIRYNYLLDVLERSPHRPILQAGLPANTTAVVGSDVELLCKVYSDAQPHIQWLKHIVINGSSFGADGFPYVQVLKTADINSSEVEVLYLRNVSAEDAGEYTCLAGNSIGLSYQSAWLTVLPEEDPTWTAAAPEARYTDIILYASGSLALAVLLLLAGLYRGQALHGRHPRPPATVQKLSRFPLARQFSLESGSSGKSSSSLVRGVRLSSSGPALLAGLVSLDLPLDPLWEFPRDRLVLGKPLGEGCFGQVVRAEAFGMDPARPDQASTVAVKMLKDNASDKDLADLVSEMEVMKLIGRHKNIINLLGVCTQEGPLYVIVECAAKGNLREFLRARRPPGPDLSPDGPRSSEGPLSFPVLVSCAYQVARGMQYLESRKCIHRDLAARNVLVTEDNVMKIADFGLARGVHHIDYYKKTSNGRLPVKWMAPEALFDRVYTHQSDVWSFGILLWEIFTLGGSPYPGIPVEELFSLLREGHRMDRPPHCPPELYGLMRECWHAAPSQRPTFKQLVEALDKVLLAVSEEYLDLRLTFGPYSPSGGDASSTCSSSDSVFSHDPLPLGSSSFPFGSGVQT
SMILES,IC50 (FGFR4),IC50 (FGFR1; [1]),IC50 (FGFR2),FGFR1/FGFR3 IC50 ratio (FGFR3 enzyme; pre-incubated for 4 hours),FGFR4/FGFR3 IC50 ratio (FGFR3 enzyme; pre-incubated for 4 hours),IC50 (FGFR3 enzyme; [2]),IC50 (FGFR1; [3]),IC50 (FGFR1),IC50 (FGFR3 enzyme)
"CNC(=O)c1ccc(CN2C(=O)N(c3c(F)c(OC)cc(OC)c3F)Cc3cnc(-c4cn(C)nc4C)cc32)cc1 [Example 62, 4-((3-(2,6-difluoro-3,5-dimethoxyphenyl)-7-(1,3-dimethyl-1H-pyrazol-4-yl)-2-oxo-3,4-dihydropyrido[4,3-d]pyrimidin-1(2H)-yl)methyl)-N-methylbenzamide]",0.03 to 0.2 µM,30 to 200 nM,0.01 to 0.03 µM,>10,>5,< 0.01 µM,,,
"COc1cc(OC)c(F)c(N2Cc3cnc(-c4cn(C)nc4C)cc3N(c3ccc4ccncc4c3)C2=O)c1F [Example 63, 3-(2,6-difluoro-3,5-dimethoxyphenyl)-7-(1,3-dimethyl-1H-pyrazol-4-yl)-1-(isoquinolin-7-yl)-3,4-dihydropyrido[4,3-d]pyrimidin-2(1H)-one]",0.03 to 0.2 µM,30 to 200 nM,0.01 to 0.03 µM,>10,>5,< 0.01 µM,,,
"COc1cc(OC)c(F)c(N2Cc3cnc(-c4cn(C)nc4C)cc3N(Cc3ccncn3)C2=O)c1F [Example 65, 3-(2,6-difluoro-3,5-dimethoxyphenyl)-7-(1,3-dimethyl-1H-pyrazol-4-yl)-1-(pyrimidin-4-ylmethyl)-3,4-dihydropyrido[4,3-d]pyrimidin-2(1H)-one]",0.03 to 0.2 µM,30 to 200 nM,< 0.01 µM,>5,>10,< 0.01 µM,,,
"COc1cc(OC)c(F)c(N2Cc3cnc(-c4cn(C)nc4C)cc3N(c3ccc(F)c(C#N)c3)C2=O)c1F [Example 66, 5-(3-(2,6-difluoro-3,5-dimethoxyphenyl)-7-(1,3-dimethyl-1H-pyrazol-4-yl)-2-oxo-3,4-dihydropyrido[4,3-d]pyrimidin-1(2H)-yl)-2-fluorobenzonitrile]",0.03 to 0.2 µM,,0.03 to 0.2 µM,>5,>5,0.01 to 0.03 µM,> 200 nM,,
"COc1cc(OC)c(F)c(N2Cc3cnc(-c4cn(C)nc4C)cc3N(c3cnccn3)C2=O)c1F [Example 70, 3-(2,6-difluoro-3,5-dimethoxyphenyl)-7-(1,3-dimethyl-1H-pyrazol-4-yl)-1-(pyrazin-2-yl)-3,4-dihydropyrido[4,3-d]pyrimidin-2(1H)-one]",0.03 to 0.2 µM,30 to 200 nM,0.01 to 0.03 µM,>5,>5,0.01 to 0.03 µM,,,
"COc1cc(OC)c(F)c(N2Cc3cnc(-c4cn(C)nc4C)cc3N(C3CCN(S(C)(=O)=O)CC3)C2=O)c1F [Example 71, 3-(2,6-difluoro-3,5-dimethoxyphenyl)-7-(1,3-dimethyl-1H-pyrazol-4-yl)-1-(1-(methylsulfonyl)piperidin-4-yl)-3,4-dihydropyrido[4,3-d]pyrimidin-2(1H)-one]",0.03 to 0.2 µM,,0.03 to 0.2 µM,>5,>3,,,30 to 200 nM,0.01 to 0.03 µM
"COc1cc(OC)c(F)c(N2Cc3cnc(-c4cn(C)nc4C)cc3N(Cc3cnn(C)c3)C2=O)c1F [Example 72, 3-(2,6-difluoro-3,5-dimethoxyphenyl)-7-(1,3-dimethyl-1H-pyrazol-4-yl)-1-((1-methyl-1H-pyrazol-4-yl)methyl)-3,4-dihydropyrido[4,3-d]pyrimidin-2(1H)-one]",< 0.01 µM,,< 0.01 µM,>5,>10,< 0.01 µM,< 10 nM,,
"COc1cc(OC)c(F)c(N2Cc3cnc(-c4cn(C)nc4C)cc3N(Cc3ccc(F)c(F)c3)C2=O)c1F [Example 73, 3-(2,6-difluoro-3,5-dimethoxyphenyl)-1-(3,4-difluorobenzyl)-7-(1,3-dimethyl-1H-pyrazol-4-yl)-3,4-dihydropyrido[4,3-d]pyrimidin-2(1H)-one]",0.03 to 0.2 µM,30 to 200 nM,0.01 to 0.03 µM,>5,>10,0.01 to 0.03 µM,,,
"COc1cc(OC)c(F)c(N2Cc3cnc(-c4cn(C)nc4C)cc3N(c3ccc4nc(C)oc4c3)C2=O)c1F [Example 75, 3-(2,6-difluoro-3,5-dimethoxyphenyl)-7-(1,3-dimethyl-1H-pyrazol-4-yl)-1-(2-methylbenzo[d]oxazol-6-yl)-3,4-dihydropyrido[4,3-d]pyrimidin-2(1H)-one]",0.03 to 0.2 µM,30 to 200 nM,0.03 to 0.2 µM,>5,>3,0.01 to 0.03 µM,,,

# Further lines, with some results ahead:
IC50 (FGFR4),IC50 (FGFR1; [1]),IC50 (FGFR2),FGFR1/FGFR3 IC50 ratio (FGFR3 enzyme; pre-incubated for 4 hours),FGFR4/FGFR3 IC50 ratio (FGFR3 enzyme; pre-incubated for 4 hours),IC50 (FGFR3 enzyme; [2]),IC50 (FGFR1; [3]),SMILES,IC50 (FGFR1),IC50 (FGFR3 enzyme)
0.03 to 0.2 µM,10 to 30 nM,< 0.01 µM,>5,>10,< 0.01 µM,,"COc1cc(OC)c(F)c(N2Cc3cnc(-c4cn(C)nc4C)cc3N(c3ccc(-n4cccn4)cc3)C2=O)c1F [Example 77, 1-(4-(1H-pyrazol-1-yl)phenyl)-3-(2,6-difluoro-3,5-dimethoxyphenyl)-7-(1,3-dimethyl-1H-pyrazol-4-yl)-3,4-dihydropyrido[4,3-d]pyrimidin-2(1H)-one]",,
0.03 to 0.2 µM,30 to 200 nM,0.01 to 0.03 µM,>5,>3,< 0.01 µM,,"COc1cc(OC)c(F)c(N2Cc3cnc(-c4cn(C)nc4C)cc3N(c3cc(F)cc(C#N)c3)C2=O)c1F [Example 78, 3-(3-(2,6-difluoro-3,5-dimethoxyphenyl)-7-(1,3-dimethyl-1H-pyrazol-4-yl)-2-oxo-3,4-dihydropyrido[4,3-d]pyrimidin-1(2H)-yl)-5-fluorobenzonitrile]",,
0.03 to 0.2 µM,30 to 200 nM,< 0.01 µM,>5,>3,< 0.01 µM,,"COc1cc(OC)c(F)c(N2Cc3cnc(-c4cn(C)nc4C)cc3N(c3ccc(C#N)cn3)C2=O)c1F [Example 79, 6-(3-(2,6-difluoro-3,5-dimethoxyphenyl)-7-(1,3-dimethyl-1H-pyrazol-4-yl)-2-oxo-3,4-dihydropyrido[4,3-d]pyrimidin-1(2H)-yl)nicotinonitrile]",,
> 0.2 µM,30 to 200 nM,0.01 to 0.03 µM,>5,>10,0.01 to 0.03 µM,,"COc1cc(N2C(=O)N(c3c(F)c(OC)cc(OC)c3F)Cc3cnc(-c4cn(C)nc4C)cc32)ccc1C#N [Example 81, 4-(3-(2,6-difluoro-3,5-dimethoxyphenyl)-7-(1,3-dimethyl-1H-pyrazol-4-yl)-2-oxo-3,4-dihydropyrido[4,3-d]pyrimidin-1(2H)-yl)-2-methoxybenzonitrile]",,
> 0.2 µM,30 to 200 nM,0.03 to 0.2 µM,>5,>5,0.01 to 0.03 µM,,"COc1cc(OC)c(F)c(N2Cc3cnc(-c4cn(C)nc4C)cc3N(C3CC3)C2=O)c1F [Example 83, 1-cyclopropyl-3-(2,6-difluoro-3,5-dimethoxyphenyl)-7-(1,3-dimethyl-1H-pyrazol-4-yl)-3,4-dihydropyrido[4,3-d]pyrimidin-2(1H)-one]",,
0.03 to 0.2 µM,30 to 200 nM,< 0.01 µM,>5,>5,< 0.01 µM,,"COc1cc(OC)c(F)c(N2Cc3cnc(-c4cn(C)nc4C)cc3N(Cc3cncnc3)C2=O)c1F [Example 84, 3-(2,6-difluoro-3,5-dimethoxyphenyl)-7-(1,3-dimethyl-1H-pyrazol-4-yl)-1-(pyrimidin-5-ylmethyl)-3,4-dihydropyrido[4,3-d]pyrimidin-2(1H)-one]",,
0.03 to 0.2 µM,30 to 200 nM,0.01 to 0.03 µM,>5,>10,< 0.01 µM,,"COc1cc(OC)c(F)c(N2Cc3cnc(-c4cn(C)nc4C)cc3N(Cc3cnccn3)C2=O)c1F [Example 85, 3-(2,6-difluoro-3,5-dimethoxyphenyl)-7-(1,3-dimethyl-1H-pyrazol-4-yl)-1-(pyrazin-2-ylmethyl)-3,4-dihydropyrido[4,3-d]pyrimidin-2(1H)-one]",,
0.03 to 0.2 µM,30 to 200 nM,< 0.01 µM,>5,>10,< 0.01 µM,,"COc1cc(OC)c(F)c(N2Cc3cnc(-c4cn(C)nc4C)cc3N(c3cncc(C)n3)C2=O)c1F [Example 87, 3-(2,6-difluoro-3,5-dimethoxyphenyl)-7-(1,3-dimethyl-1H-pyrazol-4-yl)-1-(6-methylpyrazin-2-yl)-3,4-dihydropyrido[4,3-d]pyrimidin-2(1H)-one]",,
< 0.01 µM,,< 0.01 µM,>5,>10,< 0.01 µM,< 10 nM,"COc1cc(OC)c(F)c(N2Cc3cnc(-c4cn(C)nc4C)cc3N(Cc3cccnn3)C2=O)c1F [Example 88, 3-(2,6-difluoro-3,5-dimethoxyphenyl)-7-(1,3-dimethyl-1H-pyrazol-4-yl)-1-(pyridazin-3-ylmethyl)-3,4-dihydropyrido[4,3-d]pyrimidin-2(1H)-one]",,
0.03 to 0.2 µM,10 to 30 nM,< 0.01 µM,>5,>10,< 0.01 µM,,"COc1cc(OC)c(F)c(N2Cc3cnc(-c4cn(C)nc4C)cc3N(c3cccc(-c4cnnn4C)c3)C2=O)c1F [Example 89, 3-(2,6-difluoro-3,5-dimethoxyphenyl)-7-(1,3-dimethyl-1H-pyrazol-4-yl)-1-(3-(1-methyl-1H-1,2,3-triazol-5-yl)phenyl)-3,4-dihydropyrido[4,3-d]pyrimidin-2(1H)-one]",,
